Values joined by “and” are separate entries in the source; they are usually repeats but may differ in a detail not shown here. Identical values can stand only once.
Experiments:
[1] = Solubility; type: physicochemical
Description: (11) Solubility: Soluble in methanol, ethyl acetate, acetone, chloroform and dimethyl sulfoxide; insoluble in water;

[2] = Oral toxicity in mice (body weight gain, abnormalities); type: in vivo; settings: 300 mg/kg
[3] = system: mammalian cell; assay: Mammalian cell chromosomal aberration test; type: cell-based
[4] = system: large intestinal roundworms (Ascaridia galli); assay: Chicken large intestinal roundworm elimination test, single oral dose; type: in vivo; settings: chickens; for Mean % Elimination / % Elimination: 7 days; for Mean % Elimination / Mean % body weight gain: group of 3; for % Elimination / % Body weight gain: individual chicken; for Mean % body weight gain / % Body weight gain: after 7 days
Method: Chickens verified to be artificially infected with large intestinal roundworms (Ascaridia galli) by scatoscopy were used in groups of three animals. The PF 1022 substance was used at five levels of dose from 0.2 mg/kg to 3 mg/kg. A total of 18 chickens were used in 6 groups, inclusive of an untreated control group.
For administration, an amount of the PF 1022 substance exactly equal to the dose calculated on the basis of the body weight of each chicken was weighed and suspended in water containing carboxymethylcellulose (CMC), and the suspension was administered orally as a single dose using a stomach tube. After administration, the worms eliminated were counted daily for each chicken and, after 7 days, each chicken was sacrificed and autopsied and the worms remaining in the intestinal tract were counted. The percent elimination was calculated as follows: [formula] Furthermore, the body weight just prior to administration and the body weight after 7 days were measured for each chicken and the percent body weight gain was calculated as follows: [formula]

[5] = system: whipworms (Trichuris suis); assay: Anthelmintic activity against swine whipworms; type: in vivo; settings: oral in feed; for Number of remaining worms: autopsy one week; for EPG Before administration: baseline; for EPG Upon autopsy: one week
Method: The PF 1022 substance was evaluated for its anthelmintic effect on swine whipworms by orally administering it to swine found to be infected with whipworms (Trichuris suis) by scatoscopy.
The PF 1022 substance was administered either once at 1 mg/kg, 5 mg/kg or 10 mg/kg, or at a daily dose of 2.5 mg/kg or 5 mg/kg once daily for 2 consecutive days by admixing an amount of the substance as such equal to each dose with a small portion of the ordinary feed. After administration, the number of whipworm eggs in the feces of each animal was determined daily in terms of EPG. In three animals, the worms eliminated were counted as well. One week after initiation of administration, all the animals were sacrificed and autopsied and the worms remaining in the intestinal tract were counted.

[6] = system: fourth stomachworms (Ostertaqia circumcincta) and small intestinal hairworms (Trichostrongylus colubriformis); assay: Sheep digestive tract nematodes, mixed infection, EPG; type: in vivo; settings: mean of 6 animals; for EPG At autopsy: 7 days after administration; for EPG Before administration: baseline
Method: The PF 1022 substance was evaluated for its anthelmintic effect in sheep mixedly infected with fourth stomachworms (Ostertaqia circumcincta) and small intestinal hairworms (Trichostrongylus colubriformis) by administering it orally to 24 sheep artificially infected with said two worm species.
The infected sheep were divided into 4 groups of 6 animals, which were respectively given 1 mg/kg, 5 mg/kg, 10 mg/kg and 0 mg/kg (control) of the substance suspended in 0.5% CMC, via a stomach catheter. The observation items were the number of parasite eggs per gram of feces (EPG) before administration, the EPG 7 days after administration, and the number of worms remaining in the fourth stomach and that of worms remaining in the intestinal tract as found upon autopsy 7 days after administration.
Each numerical value given is the mean of 6 animals.

[7] = system: roundworms (Parascaris equorum); assay: Anthelmintic effect on equine roundworms; type: in vivo; settings: horse, oral 5 mg/kg Day 0 and 2.5 mg/kg Day 1
Method: (§1) The PF 1022 substance was evaluated for its anthelmintic effect in a horse found by scatoscopy to be infected with roundworms (Parascaris equorum) and strongyles (Strongylus spp.) by orally administering the substance thereto.
(§2) The PF 1022 substance was suspended in water and administered with a stomach catheter at 5 mg/kg on the first day and at 2.5 mg/kg on the second day. For both the roundworms and strongyles, parasite eggs in each gram of feces (EPG) as well as parasites eliminated were counted daily for one week following the first administration. For strongyles, the number of worms in 100 g of feces was determined.

[8] = system: strongyles (Strongylus spp.); assay: Anthelmintic effect on equine strongyles; type: in vivo; settings: horse, oral 5 mg/kg Day 0 and 2.5 mg/kg Day 1
Method: as §1, §2

[9] = single oral dose 0.2 mg/kg, 0.2 mg/kg
[10] = single oral dose 0.5 mg/kg, 0.5 mg/kg
[11] = single oral dose 1 mg/kg, 1 mg/kg
[12] = single oral dose 2 mg/kg, 2 mg/kg
[13] = single oral dose 3 mg/kg, 3 mg/kg
[14] = 2 administrations, 2.5 mg/kg/administration
[15] = 2 administrations, 5 mg/kg/administration

CC(C)C[C@H]1C(=O)O[C@H](Cc2ccccc2)C(=O)N(C)[C@@H](CC(C)C)C(=O)O[C@H](C)C(=O)N(C)[C@@H](CC(C)C)C(=O)O[C@H](Cc2ccccc2)C(=O)N(C)[C@@H](CC(C)C)C(=O)O[C@H](C)C(=O)N1C [PF 1022 substance]
Solubility ([1]; methanol, ethyl acetate, acetone, chloroform and dimethyl sulfoxide): Soluble
Solubility ([1]; water): insoluble
body weight gains and abnormalities [2]: normal body weight gains are obtained without any abnormalities
mammalian cell chromosomal aberration test result [3]: negative
Mean % Elimination ([4]; single oral dose 0.2 mg/kg): 18.5%
% Elimination [4, 9]: 12.9% and 16.0% and 26.7%
Mean % body weight gain ([4]; single oral dose 0.2 mg/kg): 9.6%
% Body weight gain [4, 9]: 6.3% and 8.4% and 14.0%
Mean % Elimination ([4]; single oral dose 0.5 mg/kg): 45.4%
% Elimination [4, 10]: 16.4% and 52.1% and 67.7%
Mean % body weight gain ([4]; single oral dose 0.5 mg/kg): 9.2%
% Body weight gain [4, 10]: 8.2% and 11.5% and 7.8%
Mean % Elimination ([4]; single oral dose 1 mg/kg): 74.1%
% Elimination [4, 11]: 60.0% and 76.1% and 86.2%
Mean % body weight gain ([4]; single oral dose 1 mg/kg): 8.7%
% Body weight gain [4, 11]: 8.2% and 6.6% and 11.2%
Mean % Elimination ([4]; single oral dose 2 mg/kg): 84.6%
% Elimination [4, 12]: 82.1% and 93.5% and 78.3%
Mean % body weight gain ([4]; single oral dose 2 mg/kg): 8.9%
% Body weight gain [4, 12]: 7.8% and 10.5% and 8.4%
% Elimination [4, 13]: 100% and 95.5% and 98.3%
% Body weight gain [4, 13]: 11.8% and 9.7% and 8.3%
% Elimination ([5]; 1 administration, 1 mg/kg): 4.0%
Number of worms eliminated ([5]; 1 administration, 1 mg/kg): 14
Number of remaining worms ([5]; 1 administration, 1 mg/kg): 334
EPG Before administration ([5]; 1 administration, 1 mg/kg): 5500
EPG Upon autopsy ([5]; 1 administration, 1 mg/kg): 1200
% Elimination ([5]; 1 administration, 10 mg/kg): 100%
Number of remaining worms ([5]; 1 administration, 10 mg/kg): 0
EPG Before administration ([5]; 1 administration, 10 mg/kg): 1800
EPG Upon autopsy ([5]; 1 administration, 10 mg/kg): 0
% Elimination [5, 14]: 100%
EPG Upon autopsy [5, 14]: 0
% Elimination [5, 15]: 100%
Number of remaining worms [5, 15]: 0
EPG Before administration [5, 15]: 100
EPG Upon autopsy [5, 15]: 0
EPG At autopsy ([6]; oral 1 mg/kg): 3114
EPG Before administration ([6]; oral 1 mg/kg): 2447
EPG At autopsy ([6]; oral 5 mg/kg): 2462
EPG Before administration ([6]; oral 5 mg/kg): 2458
EPG At autopsy ([6]; oral 10 mg/kg): 1970
EPG Before administration ([6]; oral 10 mg/kg): 2332
EPG ([7]; Day 0): 77
Number of worms eliminated ([7]; Day 0): 0
EPG ([7]; Day 1): 52
Number of worms eliminated ([7]; Day 1): 22
EPG ([7]; Day 2): 0.4
Number of worms eliminated ([7]; Day 2): 17
EPG ([7]; Day 3): 0.2
Number of worms eliminated ([7]; Day 3): 0
EPG ([7]; Day 4): 0
Number of worms eliminated ([7]; Day 4): 0
EPG ([7]; Day 5): 0
Number of worms eliminated ([7]; Day 5): 0
EPG ([7]; Day 6): 0.2
Number of worms eliminated ([7]; Day 6): 0
EPG ([7]; Day 7): 0
Number of worms eliminated ([7]; Day 7): 0
EPG ([8]; Day 0): 265
Number of worms eliminated ([8]; Day 0): 0 per 100 g feces
EPG ([8]; Day 1): 82
Number of worms eliminated ([8]; Day 1): 82 per 100 g feces
EPG ([8]; Day 2): 0.6
Number of worms eliminated ([8]; Day 2): 0 per 100 g feces
EPG ([8]; Day 3): 0.4
Number of worms eliminated ([8]; Day 3): 0 per 100 g feces
EPG ([8]; Day 4): 0
Number of worms eliminated ([8]; Day 4): 0 per 100 g feces
EPG ([8]; Day 5): 0
Number of worms eliminated ([8]; Day 5): 0 per 100 g feces
EPG ([8]; Day 6): 0.2
Number of worms eliminated ([8]; Day 6): 0 per 100 g feces
Number of worms eliminated ([8]; Day 7): 0 per 100 g feces

Reference: patent publication US5116815A, “PF 1022 substance, method of treating helminthic parasitic infection and anthelmintic composition” (Meiji Seika Kaisha Ltd., priority 1989, dated 1992)
